{
  "source": "ChEMBL document CHEMBL1201862",
  "about": "“PubChem BioAssay data set” (2004)",
  "key": {"[1]": {"biological_target": "Genome polyprotein (dengue virus type 2, UniProt P29990)", "sequence (P29990 2492-3391 limits assumed)": "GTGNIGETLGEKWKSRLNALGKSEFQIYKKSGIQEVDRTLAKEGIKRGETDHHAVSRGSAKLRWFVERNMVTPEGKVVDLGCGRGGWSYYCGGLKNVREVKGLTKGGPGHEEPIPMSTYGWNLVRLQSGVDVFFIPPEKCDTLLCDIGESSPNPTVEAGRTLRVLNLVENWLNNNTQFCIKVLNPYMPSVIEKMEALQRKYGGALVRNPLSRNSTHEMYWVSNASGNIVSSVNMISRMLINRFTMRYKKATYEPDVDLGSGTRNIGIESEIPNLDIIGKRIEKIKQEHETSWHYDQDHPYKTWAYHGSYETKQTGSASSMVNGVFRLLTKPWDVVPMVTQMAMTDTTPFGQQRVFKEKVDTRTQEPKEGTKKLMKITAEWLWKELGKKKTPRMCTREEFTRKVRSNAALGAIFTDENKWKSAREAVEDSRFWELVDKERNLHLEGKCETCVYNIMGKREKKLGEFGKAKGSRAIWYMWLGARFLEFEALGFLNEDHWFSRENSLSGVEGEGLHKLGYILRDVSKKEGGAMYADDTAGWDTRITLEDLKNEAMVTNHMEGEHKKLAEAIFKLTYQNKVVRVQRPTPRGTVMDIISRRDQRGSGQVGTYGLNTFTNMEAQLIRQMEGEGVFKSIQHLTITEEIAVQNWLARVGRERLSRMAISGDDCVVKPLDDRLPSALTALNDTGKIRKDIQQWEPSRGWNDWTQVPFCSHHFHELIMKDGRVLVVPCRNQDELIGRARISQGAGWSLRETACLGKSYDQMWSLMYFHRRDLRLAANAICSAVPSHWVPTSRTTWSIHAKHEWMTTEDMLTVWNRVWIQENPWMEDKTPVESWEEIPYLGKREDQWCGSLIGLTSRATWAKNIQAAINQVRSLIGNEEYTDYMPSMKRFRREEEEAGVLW", "assay": "flavivirus cap methylation enzyme inhibition – biochemical, confirmation dose response, primary screen (AID 588689)", "format": "functional"}, "[2]": {"biological_target": "T1, Sentrin-specific protease 8 (Homo sapiens, UniProt Q96LD8)", "T1 sequence (Q96LD8 whole entry)": "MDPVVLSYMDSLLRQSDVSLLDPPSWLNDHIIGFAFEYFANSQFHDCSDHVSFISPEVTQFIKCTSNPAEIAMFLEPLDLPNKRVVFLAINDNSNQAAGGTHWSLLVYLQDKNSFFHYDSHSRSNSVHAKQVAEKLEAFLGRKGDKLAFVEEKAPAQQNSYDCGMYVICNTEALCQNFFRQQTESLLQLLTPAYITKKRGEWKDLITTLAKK", "format": "functional"}, "[3]": {"biological_target": "T1, Sentrin-specific protease 8", "assay": "inhibition of sentrin protease 8 – biochemical, luminescence, set 2, SAR follow-up (AID 588601)", "format": "functional"}, "[4]": {"tested_on": "HEK293", "assay": "cells", "format": "functional, cell-based", "settings": "Homo sapiens"}, "[5]": {"biological_target": "T2, Sentrin-specific protease 6 (Homo sapiens, UniProt Q9GZR1)", "T2 sequence (Q9GZR1 whole entry)": "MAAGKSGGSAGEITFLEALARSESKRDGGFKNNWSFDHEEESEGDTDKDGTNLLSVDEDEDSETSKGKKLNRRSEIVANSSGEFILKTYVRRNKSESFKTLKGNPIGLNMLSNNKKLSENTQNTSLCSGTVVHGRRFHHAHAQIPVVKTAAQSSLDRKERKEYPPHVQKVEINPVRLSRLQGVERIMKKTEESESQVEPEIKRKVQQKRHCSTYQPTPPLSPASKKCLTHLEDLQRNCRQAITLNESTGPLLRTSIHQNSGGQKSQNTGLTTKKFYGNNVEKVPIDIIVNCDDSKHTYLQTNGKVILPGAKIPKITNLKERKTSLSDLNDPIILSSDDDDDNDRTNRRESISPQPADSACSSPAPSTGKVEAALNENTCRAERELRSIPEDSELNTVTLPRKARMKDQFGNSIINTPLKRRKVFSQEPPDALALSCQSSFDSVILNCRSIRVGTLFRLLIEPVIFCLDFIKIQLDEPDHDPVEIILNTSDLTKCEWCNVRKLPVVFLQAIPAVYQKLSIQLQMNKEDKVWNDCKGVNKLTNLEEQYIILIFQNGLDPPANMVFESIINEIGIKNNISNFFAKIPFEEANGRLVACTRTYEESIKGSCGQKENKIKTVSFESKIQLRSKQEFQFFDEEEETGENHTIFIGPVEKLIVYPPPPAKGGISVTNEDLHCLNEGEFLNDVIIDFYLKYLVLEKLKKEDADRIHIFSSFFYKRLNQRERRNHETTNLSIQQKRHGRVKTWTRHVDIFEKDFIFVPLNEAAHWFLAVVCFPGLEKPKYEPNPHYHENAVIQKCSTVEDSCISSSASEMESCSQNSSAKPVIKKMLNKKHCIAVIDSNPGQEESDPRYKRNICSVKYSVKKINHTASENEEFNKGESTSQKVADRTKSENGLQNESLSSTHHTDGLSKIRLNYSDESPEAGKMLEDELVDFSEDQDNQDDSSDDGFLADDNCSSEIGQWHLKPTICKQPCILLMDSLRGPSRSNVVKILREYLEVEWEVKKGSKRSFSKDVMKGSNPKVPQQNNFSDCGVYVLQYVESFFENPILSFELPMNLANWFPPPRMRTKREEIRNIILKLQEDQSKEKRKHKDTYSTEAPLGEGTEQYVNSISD", "assay": "SAR Analysis of small molecule inhibitors of Sentrin-specific protease 6 (SENP6) using a Luminescent assay. [Related pubchem assays (depositor defined):AID2582, AID2599]", "format": "functional"}, "[6]": {"biological_target": "T3, Histone-lysine N-methyltransferase NSD2 (Homo sapiens, UniProt O96028)", "T3 sequence (O96028 whole entry)": "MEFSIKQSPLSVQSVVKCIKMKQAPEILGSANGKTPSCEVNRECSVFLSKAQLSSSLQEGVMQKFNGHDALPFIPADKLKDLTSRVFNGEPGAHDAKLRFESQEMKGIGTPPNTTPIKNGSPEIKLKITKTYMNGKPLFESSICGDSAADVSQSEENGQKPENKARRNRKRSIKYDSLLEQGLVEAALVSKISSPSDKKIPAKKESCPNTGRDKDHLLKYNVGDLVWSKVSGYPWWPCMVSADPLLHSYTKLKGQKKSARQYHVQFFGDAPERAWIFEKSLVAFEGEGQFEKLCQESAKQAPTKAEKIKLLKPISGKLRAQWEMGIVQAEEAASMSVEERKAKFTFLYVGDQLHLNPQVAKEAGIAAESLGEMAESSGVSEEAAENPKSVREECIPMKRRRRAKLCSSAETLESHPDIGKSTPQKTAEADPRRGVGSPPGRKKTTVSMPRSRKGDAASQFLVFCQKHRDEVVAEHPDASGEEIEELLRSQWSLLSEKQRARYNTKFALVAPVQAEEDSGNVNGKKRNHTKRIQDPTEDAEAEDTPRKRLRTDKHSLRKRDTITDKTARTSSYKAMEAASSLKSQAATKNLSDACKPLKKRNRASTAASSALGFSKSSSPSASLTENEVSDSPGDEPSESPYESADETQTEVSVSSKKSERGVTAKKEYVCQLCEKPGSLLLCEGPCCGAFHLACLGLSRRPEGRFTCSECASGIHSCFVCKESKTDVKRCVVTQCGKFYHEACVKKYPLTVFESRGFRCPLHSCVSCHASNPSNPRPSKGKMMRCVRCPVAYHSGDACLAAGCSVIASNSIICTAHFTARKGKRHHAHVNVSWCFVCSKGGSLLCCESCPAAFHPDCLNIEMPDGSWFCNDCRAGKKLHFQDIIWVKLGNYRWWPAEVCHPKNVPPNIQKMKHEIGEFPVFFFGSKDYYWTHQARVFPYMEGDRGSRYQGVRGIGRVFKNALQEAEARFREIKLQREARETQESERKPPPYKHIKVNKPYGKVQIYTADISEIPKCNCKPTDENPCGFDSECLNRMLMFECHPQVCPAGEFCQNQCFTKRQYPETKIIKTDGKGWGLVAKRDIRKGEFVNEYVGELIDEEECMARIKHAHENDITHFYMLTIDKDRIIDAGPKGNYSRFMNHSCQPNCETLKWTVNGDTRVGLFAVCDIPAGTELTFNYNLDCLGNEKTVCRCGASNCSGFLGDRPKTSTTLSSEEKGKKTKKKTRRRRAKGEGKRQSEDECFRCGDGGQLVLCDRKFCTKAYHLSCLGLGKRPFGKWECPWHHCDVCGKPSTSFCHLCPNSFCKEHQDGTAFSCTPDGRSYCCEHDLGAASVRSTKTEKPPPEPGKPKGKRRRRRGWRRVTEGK", "format": "biochemical"}, "[7]": {"biological_target": "DNA damage-inducible transcript 3 protein (Mus musculus, UniProt P35639)", "sequence (P35639 whole entry)": "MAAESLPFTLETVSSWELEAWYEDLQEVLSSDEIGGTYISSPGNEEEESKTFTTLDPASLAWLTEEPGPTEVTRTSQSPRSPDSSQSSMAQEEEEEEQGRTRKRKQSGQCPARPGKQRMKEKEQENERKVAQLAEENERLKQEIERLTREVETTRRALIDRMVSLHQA", "format": "functional, Cricetulus griseus"}, "[8]": {"biological_target": "Melanocortin receptor 4 (Homo sapiens, UniProt P32245)", "sequence (P32245 whole entry)": "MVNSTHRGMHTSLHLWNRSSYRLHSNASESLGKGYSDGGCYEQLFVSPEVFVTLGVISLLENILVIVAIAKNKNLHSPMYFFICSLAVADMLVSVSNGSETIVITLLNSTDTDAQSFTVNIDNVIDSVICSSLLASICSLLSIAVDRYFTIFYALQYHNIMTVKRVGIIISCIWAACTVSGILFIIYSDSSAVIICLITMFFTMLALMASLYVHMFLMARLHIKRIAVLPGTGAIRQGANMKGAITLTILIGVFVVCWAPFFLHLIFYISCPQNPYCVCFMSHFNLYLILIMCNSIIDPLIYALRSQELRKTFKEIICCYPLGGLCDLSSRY", "assay": "inhibitors of MC4R cAMP signaling – cell-based, TR-FRET, biased antagonists, dose response (AID 602298);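 also: antagonist potency against agonist-stimulated cAMP production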", "format": "functional"}},
  "note": "Activity calls are given as the source filed them.",
  "data": [
    {"compound": "O=C(O)CSc1cc(NS(=O)(=O)c2ccc(Cl)cc2)c2ccccc2c1O", "values": [
      {"measurement": "IC50", "setting": "[1]", "result": "7.15 µM (active)"}
    ]},
    {"compound": "COc1ccccc1N1C(=O)Cc2ccccc2C1=O", "values": [
      {"measurement": "IC50", "setting": "[2]", "result": "> 100 µM (inactive)"}
    ]},
    {"compound": "Oc1ccccc1/C=C/c1noc(-c2ccccc2O)n1", "values": [
      {"measurement": "IC50", "setting": "[3]", "result": "43 µM (active)"},
      {"measurement": "IC50", "setting": "[4]", "result": "> 67.5 µM (inactive)"},
      {"measurement": "IC50", "setting": "[5]", "result": "> 99 µM (inactive)"}
    ]},
    {"compound": "Cc1cccc(N=Nc2ccc(N(C)C)cc2)c1", "values": [
      {"measurement": "AC50", "setting": "[6]", "result": "14.2 µM (active)"}
    ]},
    {"compound": "Cc1nn(-c2ccccc2)c(Cl)c1CN(C(=O)CCl)c1ccc(Cl)cc1", "values": [
      {"measurement": "Absolute IC50 (CHOP)", "setting": "[7]", "result": 10, "unit": "µM"},
      {"measurement": "IC50", "setting": "[8]", "result": "> 64.6 µM (inactive)"}
    ]}
  ]
}
